One data set deals with Puccinia recondita. In words: Puccinia test (wheat) / protective. The format is in vivo. The note with it: 240 h, wheat plants, protective spray, active compound concentration 1000 ppm, evaluation 10 days after inoculation, read-out: efficacy. As for the experimental part:
(§1) To produce a suitable preparation of active compound, 1 part by weight of active compound is mixed with the stated amounts of solvent and emulsifier, and the concentrate is diluted with water to the desired concentration.
To test for protective activity, young plants are sprayed with the active compound preparation at the stated application rate. After the spray coating has dried on, the plants are sprayed with a conidia suspension of Puccinia recondita. The plants remain in an incubation cabin at 20° C. and 100% relative atmospheric humidity for 48 hours.
The plants are then placed in a greenhouse at a temperature of about 20° C. and a relative atmospheric humidity of 80% to promote the development of rust pustules.
(§2) Evaluation is carried out 10 days after the inoculation. 0% means an efficacy which corresponds to that of the control, whereas an efficacy of 100% means that no infection is observed.

In a further data set the test system is Sphaerotheca fuliginea. Put plainly: Sphaerotheca test (cucumber) / protective. The format is in vivo. To be noted: Podosphaera fuliginea, 168 h; cucumber plants, protective spray, active compound concentration 100 ppm, evaluation 7 days after inoculation; read-out: efficacy. Here is the method: as §1
To test for protective activity, young plants are sprayed with the active compound preparation at the stated application rate. After the spray coating has dried, the plants are inoculated with an aqueous spore suspension of Sphaerotheca fuliginea. The plants are then placed in a greenhouse at about 23° C. and a relative atmospheric humidity of about 70%.
Evaluation is carried out 7 days after the inoculation. 0% means an efficacy which corresponds to that of the control, whereas an efficacy of 100% means that no infection is observed.

Another data set concerns Podosphaera leucotricha. Put plainly: Podosphaera test (apple) / protective. The format is in vivo. The note with it: 240 h, apple plants, protective spray, active compound concentration 100 ppm, evaluation 10 days after inoculation, read-out: efficacy. Here is the method:
as §1
To test for protective activity, young plants are sprayed with the active compound preparation at the stated application rate. After the spray coating has dried on, the plants are inoculated with an aqueous spore suspension of the apple mildew pathogen Podosphaera leucotricha. The plants are then placed in a greenhouse at about 23° C. and a relative atmospheric humidity of about 70%.
as §2

Another data set has as its system Botrytis cinerea. Put plainly: Botrytis test (bean) / protective. The format is in vivo. The note with it: 48 h, bean plants, protective spray, active compound concentration 250 ppm, evaluation two days after inoculation, read-out: efficacy. As for the experimental part:
as §1
To test for protective activity, young plants are sprayed with the active compound preparation at the stated application rate. After the spray coating has dried on, 2 small pieces of agar overgrown with Botrytis cinerea are placed on each leaf. The inoculated plants are then placed in a darkened chamber at about 20° C. and 100% relative atmospheric humidity.
Two days after the inoculation the size of the infected spots on the leaves is evaluated. 0% means an efficacy which corresponds to that of the control, whereas an efficacy of 100% means that no infection is observed.

The next data set deals with Uromyces appendiculatus. Put plainly: Uromyces test (bean) / protective. The format is in vivo. To be noted: 240 h, bean plants, protective spray, active compound concentration 10 ppm, evaluation 10 days after inoculation, read-out: efficacy. As for the experimental part: as §1
To test for protective activity, young plants are sprayed with the active compound preparation at the stated application rate. After the spray coating has dried on, the plants are inoculated with an aqueous spore suspension of the bean rust pathogen Uromyces appendiculatus and then remain in an incubation cabin at about 20° C. and 100% relative atmospheric humidity for 1 day.
The plants are then placed in a greenhouse at about 21° C. and a relative atmospheric humidity of about 90%.
as §2

A value given as a limit tells only on which side of the number the result lay.

What is called logP is a log measure of how a compound divides between an organic and an aqueous phase.

For the molecule “4-(4-Bromophenoxy)-2,5-dimethylnitrobenzene”, the “log P (pH 2.3)” value stood at 4.86.

As for “4-(4-Cyclohexylphenoxy)-2,5-dimethylnitrobenzene”, the “log P (pH 2.3)” value is on record as 6.69.

As for `CCN(C)C=Nc1cc(C)c(Oc2ccc(-c3ccccc3Cl)cc2)cc1C` [Compound 27, N′-{4-[(2′-chlorobiphenyl-4-yl)oxy]-2,5-dimethylphenyl}-N-ethyl-N-methylimidoformamide], in the data set with Puccinia recondita, the pest or weed control at 1000 ppm was no less than 70%. For the same molecule, the pest or weed control at 100 ppm with Sphaerotheca fuliginea and with Podosphaera leucotricha was no less than 70% throughout. The pest or weed control at 250 ppm in the data set on Botrytis cinerea is no less than 70%. Besides, the pest or weed control at 10 ppm in the data set with Uromyces appendiculatus was no less than 70%. Besides, the logP in the data set “logP (acidic, pH 2.3)” (pH 2.3, logP acidic, acidic) was determined as 2.67.

Regarding `CCN(C)C=Nc1cc(C)c(Oc2ccc(C3CCCC3)cc2)cc1C` [Compound 32, N′-[4-(4-cyclopentylphenoxy)-2,5-dimethylphenyl]-N-ethyl-N-methylimidoformamide], the pest or weed control at 1000 ppm with Puccinia recondita is no less than 70%. Besides, the pest or weed control at 100 ppm with Sphaerotheca fuliginea and in the data set with Podosphaera leucotricha was no less than 70% in each case. Also, the pest or weed control at 250 ppm in the data set on Botrytis cinerea was no less than 70%. Moreover, in the data set with Uromyces appendiculatus, the pest or weed control at 10 ppm was no less than 70%. This molecule also came in with a logP in the data set “logP (acidic, pH 2.3)” (pH 2.3, logP acidic, acidic) of 2.87.

Turning to `Cc1cc(Oc2ccc(C3CCCC3)cc2)c(C)cc1N=CN(C)C(C)C` [Compound 33, N′-[4-(4-cyclopentylphenoxy)-2,5-dimethylphenyl]-N-isopropyl-N-methylimidoformamide], the pest or weed control at 1000 ppm in the data set on Puccinia recondita was no less than 70%. The pest or weed control at 100 ppm in the data set on Sphaerotheca fuliginea and in the data set with Podosphaera leucotricha was no less than 70% throughout. For the same molecule, the pest or weed control at 250 ppm in the data set on Botrytis cinerea is no less than 70%. For the same molecule, the pest or weed control at 10 ppm in the data set with Uromyces appendiculatus is no less than 70%. Also, in the data set “logP (acidic, pH 2.3)” (pH 2.3, logP acidic, acidic), the logP is 3.

On to `CCN(C)C=Nc1cc(C)c(Oc2ccc(C3CCCCC3)cc2)cc1C` [Compound 38, N′-{4-[4-cyclohexylphenoxy]-2,5-dimethylphenyl}-N-ethyl-N-methylimidoformamide], for which the pest or weed control at 1000 ppm in the data set on Puccinia recondita is no less than 70%. For the same molecule, the pest or weed control at 100 ppm with Sphaerotheca fuliginea and with Podosphaera leucotricha was no less than 70% in each case. In the data set on Botrytis cinerea, the pest or weed control at 250 ppm was no less than 70%. Also, in the data set with Uromyces appendiculatus, the pest or weed control at 10 ppm was no less than 70%. Moreover, the logP stood at 2.99 in “logP (acidic, pH 2.3)” (pH 2.3, log P (pH 2.3), pH 2.3) and 2.99 in “logP (acidic, pH 2.3)” (pH 2.3, logP acidic, acidic).

As to `Cc1cc(Oc2ccc(C3CCCCC3)cc2)c(C)cc1/N=C/N1CCCCC1` [Compound 41, 4-(4-cyclohexylphenoxy)-2,5-dimethyl-N-[(1E)-piperidin-1-ylmethylene]aniline], the pest or weed control at 1000 ppm with Puccinia recondita is no less than 70%. The pest or weed control at 100 ppm with Sphaerotheca fuliginea and in the data set with Podosphaera leucotricha was no less than 70% in each case. Also, in the data set with Botrytis cinerea, the pest or weed control at 250 ppm is no less than 70%. Further, in the data set with Uromyces appendiculatus, the pest or weed control at 10 ppm is no less than 70%. In the data set “logP (acidic, pH 2.3)” (pH 2.3, logP acidic, acidic), this molecule yielded a logP of 3.46.

Values taken from patent US8299302B2 (priority 2007, dated 2012).
